# What was measured:
# [1] = target: Fibroblast growth factor receptor 3 (Homo sapiens, UniProt P22607); test: Selectivity interaction (Kinase screening (Nanosyn)) EUB0000604a FGFR3
# [2] = target: Tyrosine-protein kinase CSK (Homo sapiens) (UniProt P41240); test: Selectivity interaction (ActivX KiNativ screen (kinase selectivity in THP-1 cell lysates)) EUB0000639a CSK; type: subcellular; conditions: lysate, at 1 µM
# [3] = target: T1, Serine/threonine-protein kinase D3 (Homo sapiens) (UniProt O94806); test: Selectivity interaction (ActivX KiNativ screen (kinase selectivity in THP-1 cell lysates)) EUB0000639a PRKD3; type: subcellular; conditions: lysate, at 0.01 µM
# T1 sequence (whole entry): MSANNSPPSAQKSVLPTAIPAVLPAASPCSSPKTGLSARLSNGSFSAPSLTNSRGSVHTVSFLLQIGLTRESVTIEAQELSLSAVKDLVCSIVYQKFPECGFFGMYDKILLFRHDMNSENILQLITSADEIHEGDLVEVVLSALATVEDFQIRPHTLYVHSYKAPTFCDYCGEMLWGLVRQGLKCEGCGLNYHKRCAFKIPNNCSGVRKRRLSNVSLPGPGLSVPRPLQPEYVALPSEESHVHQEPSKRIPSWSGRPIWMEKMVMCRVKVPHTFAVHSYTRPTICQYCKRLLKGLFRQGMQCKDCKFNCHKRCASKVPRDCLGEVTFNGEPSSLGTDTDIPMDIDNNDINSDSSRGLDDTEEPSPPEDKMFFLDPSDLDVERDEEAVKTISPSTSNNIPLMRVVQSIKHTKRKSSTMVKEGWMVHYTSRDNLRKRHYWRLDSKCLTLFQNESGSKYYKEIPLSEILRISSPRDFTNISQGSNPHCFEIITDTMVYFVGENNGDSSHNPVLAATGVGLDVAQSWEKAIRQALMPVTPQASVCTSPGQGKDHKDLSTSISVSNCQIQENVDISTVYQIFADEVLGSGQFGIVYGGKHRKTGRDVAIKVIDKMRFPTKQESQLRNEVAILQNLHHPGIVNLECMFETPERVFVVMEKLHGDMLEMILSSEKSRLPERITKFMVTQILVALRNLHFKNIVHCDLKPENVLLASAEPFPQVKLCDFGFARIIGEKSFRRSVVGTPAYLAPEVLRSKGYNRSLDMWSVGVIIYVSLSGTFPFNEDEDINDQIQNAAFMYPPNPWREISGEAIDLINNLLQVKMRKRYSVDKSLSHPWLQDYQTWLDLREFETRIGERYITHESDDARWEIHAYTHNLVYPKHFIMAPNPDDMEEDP
# [4] = target: TGF-beta receptor type-2 (Homo sapiens) (UniProt P37173); test: Selectivity interaction (LanthaScreen Eu Kinase Binding Assay) EUB0001632a TGFBR2; conditions: at 10 µM
# Chain of TGF-beta receptor type-2 (Homo sapiens) (P37173 whole entry): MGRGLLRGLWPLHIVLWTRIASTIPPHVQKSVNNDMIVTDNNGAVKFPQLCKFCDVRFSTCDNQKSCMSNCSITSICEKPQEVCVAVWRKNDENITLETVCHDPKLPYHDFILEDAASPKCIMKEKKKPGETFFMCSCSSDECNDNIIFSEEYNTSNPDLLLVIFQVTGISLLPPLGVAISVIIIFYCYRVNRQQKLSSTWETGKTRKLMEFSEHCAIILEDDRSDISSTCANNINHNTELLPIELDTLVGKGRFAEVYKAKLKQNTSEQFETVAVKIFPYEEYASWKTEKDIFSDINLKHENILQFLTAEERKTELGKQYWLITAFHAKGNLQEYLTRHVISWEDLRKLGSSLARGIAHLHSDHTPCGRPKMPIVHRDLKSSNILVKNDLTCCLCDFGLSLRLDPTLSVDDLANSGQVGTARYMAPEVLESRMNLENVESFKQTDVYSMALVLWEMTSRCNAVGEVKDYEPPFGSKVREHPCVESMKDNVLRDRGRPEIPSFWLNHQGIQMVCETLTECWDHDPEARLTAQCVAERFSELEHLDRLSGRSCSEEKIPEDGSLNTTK
# [5] = target: Ribosomal protein S6 kinase alpha-1 (Homo sapiens, UniProt Q15418); test: Selectivity interaction (KinomeScan (DiscoverX)) EUB0000695a RPS6KA1; conditions: at 100 nM
# Chain of Ribosomal protein S6 kinase alpha-1 (Q15418 whole entry): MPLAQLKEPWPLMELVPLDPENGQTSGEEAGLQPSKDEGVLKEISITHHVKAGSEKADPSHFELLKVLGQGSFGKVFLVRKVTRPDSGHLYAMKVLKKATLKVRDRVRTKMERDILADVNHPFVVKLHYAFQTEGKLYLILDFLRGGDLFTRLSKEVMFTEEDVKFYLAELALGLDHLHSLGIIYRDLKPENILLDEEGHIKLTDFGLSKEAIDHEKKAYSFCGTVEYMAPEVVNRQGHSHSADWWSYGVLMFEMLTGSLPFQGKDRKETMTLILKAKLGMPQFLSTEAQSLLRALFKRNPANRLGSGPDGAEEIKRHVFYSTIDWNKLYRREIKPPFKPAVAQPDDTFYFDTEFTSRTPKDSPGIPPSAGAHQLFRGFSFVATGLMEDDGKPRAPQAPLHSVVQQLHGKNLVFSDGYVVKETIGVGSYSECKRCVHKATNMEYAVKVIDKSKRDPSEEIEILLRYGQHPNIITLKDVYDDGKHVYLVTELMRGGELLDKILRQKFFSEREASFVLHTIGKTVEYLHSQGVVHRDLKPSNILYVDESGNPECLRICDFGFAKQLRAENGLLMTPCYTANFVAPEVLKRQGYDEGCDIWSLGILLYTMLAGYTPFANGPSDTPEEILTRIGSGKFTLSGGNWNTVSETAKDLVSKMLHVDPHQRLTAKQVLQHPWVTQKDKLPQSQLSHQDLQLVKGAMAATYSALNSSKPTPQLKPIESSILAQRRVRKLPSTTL
# [6] = target: Serine/threonine-protein kinase SIK2 (Homo sapiens) (UniProt Q9H0K1); test: Selectivity interaction (KinomeScan (DiscoverX)) EUB0000695a SIK2; conditions: at 100 nM
# [7] = target: Tyrosine-protein kinase receptor UFO (Homo sapiens) (UniProt P30530); test: Selectivity interaction (KinomeScan (DiscoverX)) EUB0001079a AXL; conditions: at 1 µM
# Chain of Tyrosine-protein kinase receptor UFO (Homo sapiens) (P30530 whole entry): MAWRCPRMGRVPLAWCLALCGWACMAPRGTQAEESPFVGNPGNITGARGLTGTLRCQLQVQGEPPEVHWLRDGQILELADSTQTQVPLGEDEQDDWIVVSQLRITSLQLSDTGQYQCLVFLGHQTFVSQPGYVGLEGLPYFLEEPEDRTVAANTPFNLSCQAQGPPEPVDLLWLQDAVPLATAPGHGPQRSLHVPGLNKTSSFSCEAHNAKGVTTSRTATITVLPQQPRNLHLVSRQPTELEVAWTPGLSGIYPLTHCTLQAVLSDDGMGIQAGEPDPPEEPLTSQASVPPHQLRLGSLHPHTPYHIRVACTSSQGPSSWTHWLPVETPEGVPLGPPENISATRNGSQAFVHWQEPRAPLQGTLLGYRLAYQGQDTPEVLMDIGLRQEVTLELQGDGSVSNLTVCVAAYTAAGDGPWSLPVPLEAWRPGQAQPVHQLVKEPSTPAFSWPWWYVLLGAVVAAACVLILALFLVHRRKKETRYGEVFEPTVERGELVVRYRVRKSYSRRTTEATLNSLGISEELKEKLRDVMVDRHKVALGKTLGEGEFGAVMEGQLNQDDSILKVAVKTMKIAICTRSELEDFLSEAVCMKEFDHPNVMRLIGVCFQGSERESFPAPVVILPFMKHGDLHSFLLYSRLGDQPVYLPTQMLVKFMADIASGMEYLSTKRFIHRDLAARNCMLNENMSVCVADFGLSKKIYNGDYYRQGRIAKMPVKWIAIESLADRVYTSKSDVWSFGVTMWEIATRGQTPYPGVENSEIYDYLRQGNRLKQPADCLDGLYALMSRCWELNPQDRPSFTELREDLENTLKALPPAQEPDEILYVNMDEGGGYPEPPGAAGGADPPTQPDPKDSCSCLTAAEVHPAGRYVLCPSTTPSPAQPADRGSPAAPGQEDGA
# [8] = target: Cyclin-dependent kinase 9 (Homo sapiens, UniProt P50750); test: Selectivity interaction (KinomeScan (DiscoverX)) EUB0001079a CDK9; conditions: at 1 µM
# Chain of Cyclin-dependent kinase 9 (P50750 whole entry): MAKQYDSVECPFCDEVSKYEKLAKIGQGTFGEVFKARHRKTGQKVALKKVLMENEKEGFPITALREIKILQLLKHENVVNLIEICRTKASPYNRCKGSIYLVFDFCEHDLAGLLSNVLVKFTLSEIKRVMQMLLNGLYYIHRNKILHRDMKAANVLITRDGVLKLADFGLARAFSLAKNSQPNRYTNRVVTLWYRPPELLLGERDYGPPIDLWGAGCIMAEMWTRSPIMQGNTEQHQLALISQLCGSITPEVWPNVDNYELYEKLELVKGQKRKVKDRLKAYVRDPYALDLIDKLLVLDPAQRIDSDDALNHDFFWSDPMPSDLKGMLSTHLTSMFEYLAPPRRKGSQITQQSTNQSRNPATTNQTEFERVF
# [9] = target: T2, Serine/threonine-protein kinase ULK3 (Homo sapiens) (UniProt Q6PHR2); test: Selectivity interaction (KinomeScan (DiscoverX)) EUB0001079a ULK3; conditions: at 1 µM
# T2 sequence (whole entry): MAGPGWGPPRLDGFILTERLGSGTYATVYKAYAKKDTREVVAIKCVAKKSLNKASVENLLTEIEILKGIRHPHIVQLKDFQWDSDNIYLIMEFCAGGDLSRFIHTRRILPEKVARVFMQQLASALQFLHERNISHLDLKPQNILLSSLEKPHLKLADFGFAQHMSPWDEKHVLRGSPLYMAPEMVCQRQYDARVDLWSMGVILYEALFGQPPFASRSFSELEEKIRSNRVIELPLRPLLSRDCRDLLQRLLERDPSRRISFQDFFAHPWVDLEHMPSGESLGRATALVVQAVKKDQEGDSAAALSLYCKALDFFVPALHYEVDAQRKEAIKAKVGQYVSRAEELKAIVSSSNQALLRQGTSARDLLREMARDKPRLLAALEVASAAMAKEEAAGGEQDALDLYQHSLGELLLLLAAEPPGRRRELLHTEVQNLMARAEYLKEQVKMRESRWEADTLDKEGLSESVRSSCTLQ
# [10] = target: Tyrosine-protein kinase Lck (Homo sapiens, UniProt P06239); test: Selectivity interaction (KinomeScan (DiscoverX)) EUB0001619a LCK; conditions: at 1 µM
# Chain of Tyrosine-protein kinase Lck (P06239 2-509 limits assumed): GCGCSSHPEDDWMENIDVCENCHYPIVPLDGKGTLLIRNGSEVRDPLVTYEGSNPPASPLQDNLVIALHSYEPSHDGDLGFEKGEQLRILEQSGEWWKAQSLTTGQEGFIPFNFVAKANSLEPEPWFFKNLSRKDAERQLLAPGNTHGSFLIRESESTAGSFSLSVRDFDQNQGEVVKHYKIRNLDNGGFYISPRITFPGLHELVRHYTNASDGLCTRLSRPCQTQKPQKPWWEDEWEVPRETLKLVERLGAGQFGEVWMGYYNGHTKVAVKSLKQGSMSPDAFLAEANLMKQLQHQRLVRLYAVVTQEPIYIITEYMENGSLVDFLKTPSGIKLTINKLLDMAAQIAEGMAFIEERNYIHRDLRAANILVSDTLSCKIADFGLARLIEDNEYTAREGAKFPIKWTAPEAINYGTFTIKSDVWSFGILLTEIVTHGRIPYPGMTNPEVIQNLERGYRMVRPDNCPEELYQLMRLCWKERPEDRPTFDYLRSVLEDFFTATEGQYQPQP
# [11] = target: T3, Mitogen-activated protein kinase kinase kinase kinase 2 (Homo sapiens) (UniProt Q12851); test: Selectivity interaction (ActivX KiNativ screen (ex vivo kinase selectivity in human PBMCs)) EUB0001619a MAP4K2; type: cell-based; conditions: PBMC, at 1 µM
# T3 sequence (whole entry): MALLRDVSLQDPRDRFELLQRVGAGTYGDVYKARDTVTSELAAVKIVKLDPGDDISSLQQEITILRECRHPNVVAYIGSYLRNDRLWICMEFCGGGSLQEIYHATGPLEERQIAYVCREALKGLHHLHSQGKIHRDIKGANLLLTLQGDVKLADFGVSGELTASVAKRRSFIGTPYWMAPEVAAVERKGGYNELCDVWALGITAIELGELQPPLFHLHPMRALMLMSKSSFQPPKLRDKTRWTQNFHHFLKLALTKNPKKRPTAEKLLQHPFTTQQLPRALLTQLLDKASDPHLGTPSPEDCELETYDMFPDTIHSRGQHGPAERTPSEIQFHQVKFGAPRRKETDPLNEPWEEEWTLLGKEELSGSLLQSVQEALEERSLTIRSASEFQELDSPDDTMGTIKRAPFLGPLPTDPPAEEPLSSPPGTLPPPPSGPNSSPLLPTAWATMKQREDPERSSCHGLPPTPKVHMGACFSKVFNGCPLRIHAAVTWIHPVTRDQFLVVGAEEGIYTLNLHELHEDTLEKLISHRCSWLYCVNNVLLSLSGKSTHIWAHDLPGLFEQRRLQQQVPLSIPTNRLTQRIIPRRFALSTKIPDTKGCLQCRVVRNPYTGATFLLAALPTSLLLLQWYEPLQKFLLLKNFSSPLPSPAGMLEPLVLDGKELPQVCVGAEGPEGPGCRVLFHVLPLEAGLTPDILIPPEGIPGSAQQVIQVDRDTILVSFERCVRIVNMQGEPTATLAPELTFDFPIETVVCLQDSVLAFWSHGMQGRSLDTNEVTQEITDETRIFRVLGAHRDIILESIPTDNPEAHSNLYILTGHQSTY
# [12] = target: Cyclin-dependent kinase 2 (Homo sapiens, UniProt P24941); test: Selectivity interaction (KinomeScan (DiscoverX)) EUB0000666a CDK2; conditions: at 10 µM
# Chain of Tyrosine-protein kinase CSK (Homo sapiens) (P41240 2-450 limits assumed): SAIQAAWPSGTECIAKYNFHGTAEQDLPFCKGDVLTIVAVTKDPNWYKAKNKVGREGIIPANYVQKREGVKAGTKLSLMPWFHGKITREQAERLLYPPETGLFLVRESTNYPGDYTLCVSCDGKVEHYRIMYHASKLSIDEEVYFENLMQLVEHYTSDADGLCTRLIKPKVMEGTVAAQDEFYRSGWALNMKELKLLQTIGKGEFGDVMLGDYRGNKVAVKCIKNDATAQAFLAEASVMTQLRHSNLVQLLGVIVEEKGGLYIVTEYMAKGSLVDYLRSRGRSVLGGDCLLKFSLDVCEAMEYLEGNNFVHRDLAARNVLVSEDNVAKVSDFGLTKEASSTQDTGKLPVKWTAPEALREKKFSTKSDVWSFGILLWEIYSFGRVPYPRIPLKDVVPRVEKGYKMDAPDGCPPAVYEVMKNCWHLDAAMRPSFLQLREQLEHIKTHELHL
# Chain of Fibroblast growth factor receptor 3 (P22607 23-806 limits assumed): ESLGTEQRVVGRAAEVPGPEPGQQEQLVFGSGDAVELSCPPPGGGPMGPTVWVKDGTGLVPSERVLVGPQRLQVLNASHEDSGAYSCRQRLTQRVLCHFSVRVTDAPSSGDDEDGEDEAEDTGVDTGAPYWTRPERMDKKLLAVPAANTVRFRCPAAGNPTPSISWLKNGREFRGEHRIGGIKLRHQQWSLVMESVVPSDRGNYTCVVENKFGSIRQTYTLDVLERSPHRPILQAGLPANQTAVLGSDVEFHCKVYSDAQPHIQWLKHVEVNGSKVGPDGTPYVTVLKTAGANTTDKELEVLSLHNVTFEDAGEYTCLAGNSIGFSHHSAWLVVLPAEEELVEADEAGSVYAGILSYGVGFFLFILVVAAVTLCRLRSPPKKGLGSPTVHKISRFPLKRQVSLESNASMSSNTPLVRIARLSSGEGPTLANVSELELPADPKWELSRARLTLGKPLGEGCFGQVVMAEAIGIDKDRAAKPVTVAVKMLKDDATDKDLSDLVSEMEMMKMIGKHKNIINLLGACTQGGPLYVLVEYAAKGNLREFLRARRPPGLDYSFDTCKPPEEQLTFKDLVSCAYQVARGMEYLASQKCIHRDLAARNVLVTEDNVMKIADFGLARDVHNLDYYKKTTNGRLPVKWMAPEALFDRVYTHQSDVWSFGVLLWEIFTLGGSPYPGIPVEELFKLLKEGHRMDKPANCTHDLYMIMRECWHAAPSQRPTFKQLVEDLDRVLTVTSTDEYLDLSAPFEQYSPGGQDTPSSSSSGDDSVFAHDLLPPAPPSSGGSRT
smiles,measurement,setting,value
Cc1cnc(Nc2ccc(F)cc2Cl)nc1-c1c[nH]c(C(=O)N[C@H](CO)c2cccc(Cl)c2)c1,% of inhibition,[1],8%
CC[C@@H]1[C@H](F)C(=O)N[C@@H]1COc1nccc2cc(C(N)=O)c(OC)cc12 [ZIMLOVISERTIB],% of inhibition,[2],0.5%
same,% of inhibition,[3],0%
Cn1cc(-n2cnc3c(NCc4nc5cc(Cl)c(Cl)cc5[nH]4)nc(N4CCOCC4)nc32)cn1,% of inhibition,[4],-26.6%
Cc1cc(F)c(C(=O)Nc2cccc(-c3nncn3C(C)C)n2)cc1-n1cnc(C2CC2)c1,% of control,[5],88%
same,% of control,[6],100%
Nc1cnc(N2CCc3cc(S(=O)(=O)Nc4c(F)cc(Cl)cc4F)cc(N4CCCC4=O)c32)nc1 [TP-020n],% of control,[7],69%
same,% of control,[8],100%
same,% of control,[9],100%
N#Cc1cccc(-c2c[nH]c3ncnc(N4CCOCC4)c23)c1,% of control,[10],95%
same,% of inhibition,[11],24%
O=C(NOC[C@H](O)CO)c1ccc(F)c(F)c1Nc1ccc(I)cc1F,% of control,[12],91%
